# Experimental data published in US20050064442A1, “Methods for identifying risk of breast cancer and treatments thereof” (priority 2002, published 2005).
# Test system: cell lines where RAD21 expression is inhibited using siRNA
# Assay: Clonogenic survival assay
# Format: cell-based
# Protocol: Clonogenic survival assays measure survival of cells after treatment with cytotoxic agents. In this particular assay the aim is to investigate the effect of downregulating RAD21 expression on sensitivity to therapeutically relevant DNA damaging agent.
# Cells were transfected with siRNA against RAD21, siRAD21—272, to reduce expression of RAD21. […] Cells were then trypsinized and replated at 200 cells per plate. Cells were grown for 11-12 days, fixed and stained with crystal violet to detect colonies. Colonies were then counted.
# The data were fitted to a curve and the DRF values calculated from the fitted curves of siRAD21 and Lipofectamine.
substance,measurement,setting,value
bleomycin,sensitivity to drug in clonogenic survival,"cell lines where RAD21 expression is inhibited using siRNA, FIGS. 9 and 10",increased sensitivity
same,DRF20 (factor by which the dose can be reduced in the presence of decreased RAD21 expression),"cells transfected with siRAD21—272, drug exposure 2 hours, two days after transfection, colonies counted after 11-12 days, from fitted curves of siRAD21 and Lipofectamine",1.15
